Data as given in patent US20260216294A1, “BETA 2-ADRENERGIC RECEPTOR AGONISTS FOR TREATMENT OR PREVENTION OF MUSCLE WASTING” (ATROGI AB, priority 2023, published 2026).

Columns and labels:
[1] = system: L6-myotubes; assay: Glucose uptake in differentiated L6-myotubes (Biological Example 2); type: cell-based; conditions: for Emax at 10 µM: read-out: Biological example 2 (GU)
Method in brief: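 Uptake was quantified as radioactivity in 0.2 M NaOH lysates after a 10 min pulse of 50 nM ^3H-2-deoxyglucose. The pulse followed two agonist exposures at 1×10^−5 M final (isoprenaline or test compound): 1 h 40 min, then 20 min in glucose-free medium after washing. L6 myotubes had been starved overnight in medium with 0.5% fatty-acid-free BSA.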

[2] = system: L6-myotubes; assay: Measurement of intracellular cAMP levels in differentiated L6-myotubes (Biological Example 3); type: cell-based; conditions: for Emax at 10 µM: 0.25 h
Method in brief: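 Intracellular cAMP quantified by AlphaScreen after ethanol extraction and lysis of L6 myotubes. Cells were serum-starved overnight, then exposed for 15 min to compound (final 1×10^−5 M) or isoprenaline in IBMX-containing (1 mM) HBSS buffer, pH 7.4.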

[3] = glucose uptake in differentiated L6-myotubes, compound at 10 μM, activity relative to isoproterenol at 10 μM
[4] = intracellular cAMP in differentiated L6-myotubes, compound at 10 μM, activity relative to isoproterenol at 10 μM
[5] = glucose uptake, compound at 10 μM relative to isoproterenol at 10 μM
[6] = intracellular cAMP, compound at 10 μM relative to isoproterenol at 10 μM

SMILES	Emax at 10 µM [1, 3]	Emax at 10 µM [2, 4]	Emax at 10 µM [1, 5]	Emax at 10 µM [2, 6]	other results
O[C@@H](c1cccc(F)c1)[C@H]1CC[C@@H](Cc2ccc(Cl)cc2)N1 [Compound 391, (S)-{(2R,5S)-5-[(p-chlorophenyl)methyl]-2-pyrrolidinyl}(m-fluorophenyl)methanol]	50 to 75%	< 25%			
CCC[C@@H](C)NC[C@H](O)c1cccc(O)c1 [Compound 28, (R)-2-[(R)-1-methylbutylamino]-1-(m-hydroxyphenyl)-1-ethanol]			> 75%	50 to 75%	
CCC[C@@H]1CCC[C@H]([C@@H](O)c2ccccc2F)N1 [Compound 107, (S)-[(2R,6R)-6-propyl-2-piperidyl](o-fluorophenyl)methanol]			25 to 50%	< 25%	
CO[C@H]1CC[C@H](C(C)(C)NC[C@H](O)c2cccc(F)c2)CC1 [Compound 239, (R)-1-(m-fluorophenyl)-2-{1-methyl-1-[(1r,4R)-4-methoxycyclohexyl]ethylamino}-1-ethanol]	> 75%	< 25%			
CCC[C@H]1CCC[C@@H]([C@H](O)c2cccc(O)c2)N1 [Compound 122]			50 to 75%	< 25%	
CS(=O)(=O)N(Cc1ccccc1)c1cccc(CC23CCC([C@H](O)c4cccc(F)c4)(CC2)N3)c1 [Compound 513]	25 to 50%	< 25%			
CC1(C)C[C@H]([C@H](O)c2cncc(F)c2)N1 [Compound 214]	> 75%	< 25%			
CC(C)(NC[C@H](O)c1cncc(F)c1)[C@H]1CC[C@H](O)CC1 [Compound 285, (R)-1-(5-fluoro-3-pyridyl)-2-{1-methyl-1-[(1r,4R)-4-hydroxycyclohexyl]ethylamino}-1-ethanol]	50 to 75%	< 25%			
CCCCNCC(O)c1cc(F)cc(F)c1 (stereo not drawn) [Compound 55, 2-(butylamino)-1-(3,5-difluorophenyl)-1-ethanol]			50 to 75%	< 25%	
CC1(C)CC[C@H]([C@H](O)c2cccc(Cl)c2)N1 [Compound 154, (R)-[(R)-5,5-dimethyl-2-pyrrolidinyl](m-chlorophenyl)methanol]			> 75%	< 25%	
CC1(C)C[C@@H]([C@H](O)c2ccccc2F)N1 [Compound 202, (R)-[(S)-4,4-dimethyl-2-azetidinyl](o-fluorophenyl)methanol]	< 25%	< 25%			
CCCCNC[C@H](O)c1cnc(N)s1 [Compound 75, (S)-1-(2-amino-1,3-thiazol-5-yl)-2-(butylamino)-1-ethanol]			25 to 50%	< 25%	
CC1(C)CCC[C@H]([C@@H](O)c2ccccc2Cl)N1 [Compound 163, (S)-[(R)-6,6-dimethyl-2-piperidyl](o-chlorophenyl)methanol]			> 75%	< 25%	
CC12CC(C1)[C@@H]([C@H](O)c1cccc(Cl)c1)N2 [Compound 209]	25 to 50%	< 25%			
CC(C)(C[C@H]1CC[C@@H](NS(C)(=O)=O)CC1)NC[C@H](O)c1cncc(F)c1 [Compound 468, (R)-2-{1,1-dimethyl-2-[(1s,4S)-4-(mesylamino)cyclohexyl]ethylamino}-1-(5-fluoro-3-pyridyl)-1-ethanol]	> 75%	< 25%			
CS(=O)(=O)N[C@H]1CC[C@H](CNC[C@H](O)c2cncc(F)c2)CC1 [Compound 313]	25 to 50%	< 25%			
CC(C)(CC[C@H]1CC[C@@H](O)CC1)NC[C@H](O)c1cncc(F)c1 [Compound 296, (R)-2-{1,1-dimethyl-3-[(1s,4R)-4-hydroxycyclohexyl]propylamino}-1-(5-fluoro-3-pyridyl)-1-ethanol]	> 75%	< 25%			
CCC[C@H]1CC[C@H]([C@H](O)c2cccc(F)c2)N1 [Compound 124, (R)-[(2R,5S)-5-propyl-2-pyrrolidinyl](m-fluorophenyl)methanol]			50 to 75%	< 25%	
CN(C)S(=O)(=O)[C@H]1CC[C@H](CC(C)(C)NC[C@H](O)c2cncc(F)c2)CC1 [Compound 465]	50 to 75%	25 to 50%			
COC(=O)[C@H]1CC[C@H](CC(C)(C)NC[C@H](O)c2cccc(F)c2)CC1 [Compound 353, methyl (1R,4r)-4-{2-[(R)-2-(m-fluorophenyl)-2-hydroxyethylamino]-2-methylpropyl} cyclohexanecarboxylate]	> 75%	< 25%			

SMILES	Emax at 10 µM [1, 3]	Emax at 10 µM [2, 4]	Emax at 10 µM [1, 5]	Emax at 10 µM [2, 6]	other results
CC1(C)CC[C@H]([C@H](O)c2cccc(F)c2)N1 [Compound 110]			> 75%	< 25%	
O[C@H](c1cccc(F)c1)C12CCC(Cc3ccc(F)cc3)(CC1)N2 [Compound 413, (R)-(m-fluorophenyl){4-[(p-fluorophenyl)methyl]-7-azabicyclo[[2.2.1]]hept-1-yl}methanol]	> 75%	< 25%			
O[C@@H](c1cccc(F)c1)C12CCC(CCc3ccc(OC(F)(F)F)cc3)(CC1)N2 [Compound 544, (S)-(m-fluorophenyl){4-[2-(p-trifluoromethoxyphenyl)ethyl]-7-azabicyclo[[2.2.1]]hept-1-yl}methanol]	< 25%	< 25%			
CS(=O)(=O)N[C@H]1CC[C@@H](CNC[C@H](O)c2cncc(F)c2)CC1 [Compound 314, (R)-1-(5-fluoro-3-pyridyl)-2-({[(1s,4S)-4-(mesylamino)cyclohexyl]methyl}amino)-1-ethanol]	50 to 75%	< 25%			
CC(C)(NC[C@H](O)c1cccc(F)c1)[C@H]1CC[C@H](OCc2ccccc2)CC1 [Compound 279, (R)-1-(m-fluorophenyl)-2-{1-methyl-1-[(1r,4R)-4-(benzyloxy)cyclohexyl]ethylamino}-1-ethanol]	50 to 75%	< 25%			
CC(C)(NC[C@H](O)c1cccc(F)c1)[C@H]1CC[C@H](O)CC1 [Compound 283, (R)-1-(m-fluorophenyl)-2-{1-methyl-1-[(1r,4R)-4-hydroxycyclohexyl]ethylamino}-1-ethanol]	50 to 75%	< 25%			
COC(=O)[C@H]1CC[C@H](CCC(C)(C)NC[C@H](O)c2cncc(F)c2)CC1 [Compound 342, methyl (1R,4r)-4-{3-[(R)-2-(5-fluoro-3-pyridyl)-2-hydroxyethylamino]-3-methylbutyl} cyclohexanecarboxylate]	> 75%	< 25%			
CC1(C)CCC[C@H]([C@@H](O)c2cccc(Cl)c2)N1 [Compound 164]			50 to 75%	< 25%	
CS(=O)(=O)Nc1cccc(CC23CCC([C@@H](O)c4cccc(F)c4)(CC2)N3)c1 [Compound 515, (R)-(m-fluorophenyl)(4-{[m-(mesylamino)phenyl]methyl}-7-azabicyclo[[2.2.1]]hept-1-yl)methanol]					Biological example 2 (GU) [1, 3]: ++ (if it is between 75 and 50% it is denoted with ++); Biological example 3 (CAMP) [2, 4]: + (if it is between 50 and 25% it is denoted with +)
CC12CC(C1)[C@@H]([C@@H](O)c1cccc(F)c1)N2 [Compound 189]			50 to 75%	< 25%	
CC(C)(NC[C@H](O)c1cccc(F)c1)[C@H]1CC[C@H](OCC(=O)O)CC1 [Compound 402]	50 to 75%	< 25%			
CC(C)(C[C@H]1CC[C@@H](NS(C)(=O)=O)CC1)NC[C@H](O)c1cccc(F)c1 [Compound 453, (R)-2-{1,1-dimethyl-2-[(1s,4S)-4-(mesylamino)cyclohexyl]ethylamino}-1-(m-fluorophenyl)-1-ethanol]	> 75%	< 25%			
O[C@H](c1cccc(F)c1)C12CCC(CCc3ccc(OC(F)(F)F)cc3)(CC1)N2 [Compound 546, (R)-(m-fluorophenyl){4-[2-(p-trifluoromethoxyphenyl)ethyl]-7-azabicyclo[[2.2.1]]hept-1-yl}methanol]	< 25%	< 25%			
CCCCNCC(O)c1cccc(Cl)c1 (stereo not drawn) [Compound 2, 2-(butylamino)-1-(m-chlorophenyl)-1-ethanol]			25 to 50%	< 25%	
CC(C)(C[C@H]1CC[C@@H](C(=O)O)CC1)NC[C@H](O)c1cccc(F)c1 [Compound 331, (1S,4s)-4-{2-[(R)-2-(m-fluorophenyl)-2-hydroxyethylamino]-2-methylpropyl} cyclohexanecarboxylic acid]	25 to 50%	< 25%			
CCCCNCC(O)c1ccc(F)c(F)c1 (stereo not drawn) [Compound 56, 2-(butylamino)-1-(3,4-difluorophenyl)-1-ethanol]			50 to 75%	< 25%	
O[C@@H](CNCCC[C@H]1CC[C@@H](O)CC1)c1cccc(F)c1 [Compound 306, (R)-1-(m-fluorophenyl)-2-{3-[(1s,4R)-4-hydroxycyclohexyl]propylamino}-1-ethanol]	25 to 50%	< 25%			
CC(C)(C)NC[C@H](O)c1ccc(F)c(O)c1 [Compound 84, (R)-2-(tert-butylamino)-1-(4-fluoro-3-hydroxyphenyl)-1-ethanol]			> 75%	50 to 75%	
CC12CC(C1)[C@H]([C@@H](O)c1cccc(F)c1)N2 [Compound 187]			25 to 50%	< 25%	
